# Reference: patent US20120083464A1, “NEUROPROTECTIVE PROPERTIES OF 5'-METHYLTHIOADENOSINE” (priority 2009, published 2012)
# “Also recorded” adds a separate entry of the source.
# Columns and labels:
# [1] = tested on: mixed cultures of neurons and astrocytes obtained from the cerebral cortex; experiment: Oxygen-glucose deprivation (simulated ischemia) in neuron-astrocyte co-cultures; type: cell-based, Sprague-Dawley rat
# Text: Primary neuron cultures were obtained from the cortical lobes of E18 Sprague-Dawley rat embryos according to previously described procedures (Cheung et al., 1998, Neuropharmacology 37:1419-1429). The cells were resuspended in B27 Neurobasal medium plus 10% FBS and then seeded in 24-well plates at 1-2×10^5 cells per well onto a monolayer of astrocytes which were previously prepared as described earlier (Vallejo-Illarramendi et al., 2005, Glia 50:276-279). One day later, the medium was replaced by B27-supplemented Neurobasal medium and 10% fetal bovine serum, and maintained at 37° C. and 5% CO2. Cultures were used 8-9 days after plating. Cultured neurons and astrocytes were identified using antibodies to microtubule associated protein-2 and glial fibrillary acidic protein, respectively.
# Ischemic damage was induced by incubating cell cultures in a hyperbaric chamber for 1 hour in nitrogen-saturated buffer containing NaCl 130 mM, KCl 5.4 mM, CaCl2 0.1323 mM, […], MgCl2 0.8 mM, NaH2PO4 1.18 mM, 10 mM sucrose as a substitute of glucose, and the glyocolytic blocker iodoacetate (20 or 50 μM). After the insult, cells were incubated in normoxia, glucose added and iodoacetate removed for an additional period of 24 hours. […] The results are expressed as the mean±SEM of at least four independent experiments performed in triplicate.
# [2] = tested on: RN22 cells; experiment: Hydrogen peroxide stress in RN22 cells, MTT cell viability; type: cell-based, rat; conditions: hydrogen peroxide 100 μM, twenty-four hours; MTA 25 μM-3 mM
# Method: (§1) RN22 cells were maintained at 37° C. in DMEM medium supplemented with 10% of fetal bovine serum and penicillin/streptomycine. The assays against stress with copper sulphate were conducted using 24-well plates in DMEM medium without serum. After allowing cell adherence for three days, NGF (100 ng/ml) or MTA was added to different concentrations half an hour before the copper sulphate (150 μM). After twenty-four hours, cell viability was quantified by MTT assay and ROS production was quantified by fluorescence. Assays against stress with hydrogen peroxide were conducted in the same way as the foregoing, using 100 μM hydrogen peroxide as a stress-producing agent.
# (§2) We determined the quantity of MTT (Sigma) that is reduced to insoluble formazan. After separating the medium, the water-insoluble formazan is solubilised in DMSO and the dissolved material is measured in a spectrophotometer at 570 nm.
# [3] = tested on: RN22 cells; experiment: Hydrogen peroxide stress in RN22 cells, ROS levels; type: cell-based, rat; conditions: hydrogen peroxide 100 μM, different time periods
# Method: as §1
# (§3) We determined the quantity of ROS produced by the cells after stress with and without treatment. 2′,7′- dichlorodihydrofluorescein (DCFH) is generally used to measure oxidative stress in cells. The cells were incubated with DCFH-DA (10 μM) at 37° C. for thirty minutes. After incubation, the cells were washed twice with PBS and lysed by adding 10 mM Tris-HCL buffer containing 0.5% of Tween 20. The homogenates were then centrifuged at 10,000 g for ten minutes to separate the cell residue and […] fluorescence in the supernatant was measured using a fluorometer (excitation wavelength 492-495 nm, emission wavelength 517-527 nm) (Invitrogen).
# [4] = tested on: rats after focal ischemia (MCAO); type: in vivo
# [5] = tested on: RN22 cells; experiment: Copper sulphate stress in RN22 cells, ROS levels; type: cell-based, rat; conditions: copper sulphate 150 μM, different time periods
# Method: as §1, §3
# [6] = tested on: CA1 hippocampal neurons; experiment: Global ischemia (four-vessel occlusion, 10 min), Fluoro jade staining; type: in vivo, Wistar rats; conditions: P<0.01
# Method: Before surgical procedures, animals were fasted overnight. The rats were subjected to middle cerebral artery occlusion (MCAO) for 90 min using the intraluminal filament model as described previously (Rickhag et al, 2006; J Neurochem 96:14-29). Blood flow was monitored transcraneally with a doppler laser (Perimed). All physiologic parameters of animals included in the study were within normal ranges and included animals showing typical ischemia-induced behavioral deficits, rotational asymmetry, and dysfunctional limb placement. Rectal and body temperature was maintained at 37° C. during surgery and ischemia with a heating pad. Transient forebrain ischemia was induced by occlusion of the vertebral and common carotid arteries for 10 min according to the method described by Pulsinelli and Brierley (1979; Stroke 10, 267-272.). Criteria for forebrain ischemia were bilateral loss of the righting reflex, paw extension and mydriasis. […]
# The animals were treated with MTA (30 or 100 mg/kg i.p.), twice daily reconstituted in Tris 300 mM, or placebo (Tris 300 mM) starting at 30 min of the onset of ischemia. […]
# [7] = tested on: RN22 cells; experiment: Copper sulphate stress in RN22 cells, MTT cell viability; type: cell-based, rat
# Method: as §1, §2
# [8] = tested on: MAPK, p38/SAPK and STAT3 pathways; experiment: Intracellular phosphorylation in PC12 cells (Luminex); type: cell-based, rat; conditions: PC12 cells after MTA-induced differentiation, four days
# Text: The phosphorylation of different intracellular proteins was detected using Luminex technology. After the neurite differentiation assay the PC12 cells were received in lysis buffer and tested using different antibodies: total Akt/PKB, total p38/SAPK, total STAT3, total ERK/MAPK, total P70 S6 Kinase, phosphorolyated Akt/PKB (Ser473), phosphorylated Akt/PKB (Thr 308), phosphorylated p38/SAPK (Thr180/Tyr182), phosphorilyated STAT 3 (Tyr705/Ser 727), phosphorylated ERK/MAPK (Thr185/Tyr187) and phosphorylated P70 S6 Kinase (Thr412).
compound,measurement,setting,value
"CSC[C@H]1O[C@@H](n2cnc3c(N)ncnc32)[C@H](O)[C@@H]1O [MTA, 5′-methylthioadenosine]",protection from OGD-induced damage compared with APV (50 μM),[1]; MTA at 10 μM,even more protective than APV
same,protection from OGD (ischemia)-induced damage,"[1]; OGD 1 hour with IAA at 20 or 50 μM, both conditions, assayed 24 hours later",highly protective
same,cell viability (MTT) under hydrogen peroxide stress,[2],capable of maintaining cell viability
same,ROS production under hydrogen peroxide stress,[3],capable of reducing ROS production
same,damaged area (TTC staining) versus vehicle,"[4]; MTA 30 mg/kg i.p. twice daily from 30 min after onset of ischemia, 3 days of reperfusion",did not show a reduction; also recorded: does not protect
same,toxicity to rats after ischemia,[4]; MTA 100 mg/kg i.p. twice daily,toxic
same,ROS production under copper sulphate stress,[5],reduce ROS production
same,CA1 hippocampal neuron cell death (Fluoro jade fluorescence),"[6]; 10 min global ischemia, MTA i.p. twice daily from 30 min post-ischemia, 7 days",protects
same,lower levels of dying cells in the CA1 region versus vehicle (Fluoro jade),"[6]; MTA 30 mg/kg i.p. twice daily, 7 days of reperfusion",about 50%
same,cell viability response (MTT) under copper sulphate stress at high MTA concentrations,[7]; MTA in mM range,lowest response
same,cell viability (MTT) under copper sulphate stress,"[7]; copper sulphate 150 μM, twenty-four hours, reaches NGF control levels at most MTA concentrations",significant neuroprotective effect
same,"phosphorylation of intracellular proteins: MAPK, p38/SAPK and STAT3 pathways",[8],activation
